For test [1], the target named is Mer (phospho-Mer, MERTK-transfected 293A cells) (Homo sapiens (Human), UniProt Q12866). Kind of test: Mer autophosphorylation ELISA in transient transfected 293A cells (Example H). Type of test: cell-based. The settings on record: cellular activity; Mer autophosphorylation ELISA in transient transfected 293A cells. The gist of the method: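 Inhibition of cellular Mer autophosphorylation is determined in 293A cells transiently expressing human MERTK after 1 h compound exposure (8 concentrations, serum-free, 0.3% DMSO). Phospho-Mer in clarified lysates is measured by ELISA, with DMSO and reference-inhibitor wells defining the 100% and 0% activity limits.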
Mer (phospho-Mer, MERTK-transfected 293A cells), sequence (Q12866 21-999): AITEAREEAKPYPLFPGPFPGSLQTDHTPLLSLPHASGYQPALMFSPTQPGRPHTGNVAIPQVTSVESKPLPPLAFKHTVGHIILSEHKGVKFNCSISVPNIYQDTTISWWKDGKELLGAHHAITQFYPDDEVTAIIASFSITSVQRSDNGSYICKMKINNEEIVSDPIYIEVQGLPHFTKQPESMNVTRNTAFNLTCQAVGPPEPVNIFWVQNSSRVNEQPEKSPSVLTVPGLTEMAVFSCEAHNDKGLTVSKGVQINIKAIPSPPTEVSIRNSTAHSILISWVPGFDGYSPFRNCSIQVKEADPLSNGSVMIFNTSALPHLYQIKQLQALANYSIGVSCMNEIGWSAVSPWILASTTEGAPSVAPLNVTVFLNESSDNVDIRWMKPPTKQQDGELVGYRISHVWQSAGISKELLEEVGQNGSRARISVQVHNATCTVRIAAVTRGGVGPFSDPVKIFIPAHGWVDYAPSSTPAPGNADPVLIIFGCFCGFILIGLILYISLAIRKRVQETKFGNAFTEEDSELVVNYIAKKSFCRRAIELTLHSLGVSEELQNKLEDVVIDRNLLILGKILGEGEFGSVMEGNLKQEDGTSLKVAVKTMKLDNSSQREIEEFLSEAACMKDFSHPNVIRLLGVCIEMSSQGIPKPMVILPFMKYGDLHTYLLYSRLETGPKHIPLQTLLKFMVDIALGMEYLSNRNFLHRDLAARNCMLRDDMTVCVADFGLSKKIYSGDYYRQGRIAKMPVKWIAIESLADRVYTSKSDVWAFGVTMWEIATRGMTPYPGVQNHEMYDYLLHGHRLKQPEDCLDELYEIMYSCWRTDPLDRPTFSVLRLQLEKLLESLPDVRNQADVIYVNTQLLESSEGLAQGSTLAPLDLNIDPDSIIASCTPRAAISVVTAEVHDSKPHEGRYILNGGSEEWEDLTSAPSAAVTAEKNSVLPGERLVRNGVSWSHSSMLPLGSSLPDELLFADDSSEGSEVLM

Test [2] concerns the target Human MER (residues 528-999) (Homo sapiens (Human), UniProt Q12866). Briefly: Human Mer kinase assay, HTRF KinEase (Example C-2). Type of test: biochemical. As to conditions: protocol of Example C-2 (other compounds). In outline: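 IC50 values from 10 concentrations via 4-parameter logistic fit of […], with DMSO as 100% and 1 μM reference compound as 0% activity. Reaction: MER kinase domain 528-999, 1 ng/well, 40 μM ATP (Km), biotin peptide, 5 mM MgCl2, 1 mM DTT, 3% DMSO, room temperature 60 min; HTRF streptavidin-XL665/Eu-antibody detection.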

For test [3], the target named is Human KDR (residues 790-1356) (Homo sapiens (Human), UniProt P35968). Kind of test: Human KDR kinase assay, HTRF KinEase (Example B-2). Type of test: biochemical. The settings on record: protocol of Example B-2 (other compounds). The gist of the method: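 Human KDR residues 790-1356 (0.1 ng/well) in buffer with 5 mM MgCl2, 1 mM MnCl2, 1 mM DTT, biotinylated peptide substrate, ATP at Km (4.0 μM), 3% DMSO, 10 compound concentrations; 40 min, room temperature. EDTA stop, streptavidin-XL665/Eu-TK antibody HTRF read 665/620 nm; 4-parameter IC50.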
Human KDR (residues 790-1356), sequence (P35968 790-1356): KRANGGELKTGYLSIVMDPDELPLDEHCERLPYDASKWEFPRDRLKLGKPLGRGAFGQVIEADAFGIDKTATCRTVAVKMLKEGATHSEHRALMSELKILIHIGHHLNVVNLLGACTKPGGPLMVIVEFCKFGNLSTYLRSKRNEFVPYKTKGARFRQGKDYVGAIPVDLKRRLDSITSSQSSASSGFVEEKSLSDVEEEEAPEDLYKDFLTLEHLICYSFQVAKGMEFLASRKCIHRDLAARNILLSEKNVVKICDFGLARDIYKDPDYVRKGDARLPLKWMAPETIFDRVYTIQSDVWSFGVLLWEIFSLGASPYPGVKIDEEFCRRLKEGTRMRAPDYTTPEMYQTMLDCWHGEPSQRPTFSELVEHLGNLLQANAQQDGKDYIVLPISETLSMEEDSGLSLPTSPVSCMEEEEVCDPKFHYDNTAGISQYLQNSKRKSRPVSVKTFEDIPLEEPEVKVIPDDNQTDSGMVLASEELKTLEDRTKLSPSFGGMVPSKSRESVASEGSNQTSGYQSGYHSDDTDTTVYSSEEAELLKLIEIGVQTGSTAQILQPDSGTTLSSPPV
(In TR-FRET formats the signal depends on donor and acceptor labels being close together.)

Human MER (residues 528-999), sequence (Q12866 528-999): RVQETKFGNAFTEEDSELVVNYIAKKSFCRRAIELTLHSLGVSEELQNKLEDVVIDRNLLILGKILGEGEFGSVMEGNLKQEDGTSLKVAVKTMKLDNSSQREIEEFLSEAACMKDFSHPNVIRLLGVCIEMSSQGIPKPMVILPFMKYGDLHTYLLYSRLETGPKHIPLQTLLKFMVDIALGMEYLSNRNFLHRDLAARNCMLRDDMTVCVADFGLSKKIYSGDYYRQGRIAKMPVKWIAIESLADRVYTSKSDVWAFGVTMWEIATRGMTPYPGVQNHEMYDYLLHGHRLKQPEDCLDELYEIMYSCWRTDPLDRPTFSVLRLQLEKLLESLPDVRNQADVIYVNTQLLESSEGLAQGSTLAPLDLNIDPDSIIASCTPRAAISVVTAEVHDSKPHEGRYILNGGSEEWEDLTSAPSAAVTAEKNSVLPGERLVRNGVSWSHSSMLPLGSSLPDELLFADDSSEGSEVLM

For `CCc1nc(C)c(-c2ccc(F)cc2)c(O)c1C(=O)Nc1ccc(Oc2ccnc3cc(OC)cnc23)cc1` [Compound 188, 2-Ethyl-5-(4-fluorophenyl)-4-hydroxy-N-[4-[(7-methoxy-1,5-naphthyridin-4-yl)oxy]phenyl]-6-methylpyridine-3-carboxamide], the IC50 in test [1], in test [2] and in test [3] was less than 100 nM throughout.
As for `COCc1nc(C)c(-c2ccc(F)cc2)c(O)c1C(=O)Nc1ccc(Oc2ccnc3ccc(OC)nc23)c(F)c1` [Compound 189, N-[3-Fluoro-4-[(6-methoxy-1,5-naphthyridin-4-yl)oxy]phenyl]-5-(4-fluorophenyl)-4-hydroxy-2-(methoxymethyl)-6-methylpyridine-3-carboxamide], the results for the IC50 in test [1], in test [2] and in test [3] were less than 100 nM, less than 100 nM and 100 to 300 nM, respectively.
On to `COCc1nc(C)c(-c2ccc(F)cc2)c(O)c1C(=O)Nc1ccc(Oc2ccnc3cc(OC)c(OC)nc23)cc1` [Compound 190, N-[4-[(6,7-Dimethoxy-1,5-naphthyridin-4-yl)oxy]phenyl]-5-(4-fluorophenyl)-4-hydroxy-2-(methoxymethyl)-6-methylpyridine-3-carboxamide], for which the IC50 in test [1], in test [2] and in test [3] was less than 100 nM throughout.
As to `COCc1nc(C)c(-c2ccc(F)cc2C)c(O)c1C(=O)Nc1ccc(Oc2ccnc3cc(OC)c(OC)nc23)c(F)c1` [Compound 191, N-[4-[(6,7-Dimethoxy-1,5-naphthyridin-4-yl)oxy]-3-fluorophenyl]-5-(4-fluoro-2-methylphenyl)-4-hydroxy-2-(methoxymethyl)-6-methylpyridine-3-carboxamide], the IC50 in test [1], in test [2] and in test [3] was less than 100 nM throughout.
As to `COCc1nc(C)c(-c2ccc(F)cc2C)c(O)c1C(=O)Nc1ccc(Oc2ccnc3cc(OC)c(OC)nc23)cc1` [Compound 192, N-[4-[(6,7-Dimethoxy-1,5-naphthyridin-4-yl)oxy]phenyl]-5-(4-fluoro-2-methylphenyl)-4-hydroxy-2-(methoxymethyl)-6-methylpyridine-3-carboxamide], the IC50 in test [1], in test [2] and in test [3] was less than 100 nM throughout.
Consider `COCc1nc(C)c(-c2ccc(F)cc2C)c(O)c1C(=O)Nc1ccc(Oc2ccnc3cc(OC)cnc23)c(F)c1` [Compound 193, N-[3-Fluoro-4-[(7-methoxy-1,5-naphthyridin-4-yl)oxy]phenyl]-5-(4-fluoro-2-methylphenyl)-4-hydroxy-2-(methoxymethyl)-6-methylpyridine-3-carboxamide], for which the 50% inhibitory concentration (IC50) (as a rule, the point on the concentration scale where inhibition reaches its midpoint) was less than 100 nM in test [1], less than 100 nM in test [2] and 100 to 300 nM in test [3].
As for `COCc1nc(C)c(-c2ccc(F)cc2C)c(O)c1C(=O)Nc1ccc(Oc2ccnc3cc(OC)cnc23)cc1` [Compound 194, 5-(4-Fluoro-2-methylphenyl)-4-hydroxy-2-(methoxymethyl)-N-[4-[(7-methoxy-1,5-naphthyridin-4-yl)oxy]phenyl]-6-methylpyridine-3-carboxamide], the values for the IC50 in test [1], in test [2] and in test [3] were less than 100 nM, less than 100 nM and 100 to 300 nM, respectively.
Turning to `COCc1nc(C)c(-c2ccc(F)cc2C)c(O)c1C(=O)Nc1ccc(Oc2ccnc3ccc(OC)nc23)c(F)c1` [Compound 195, N-[3-Fluoro-4-[(6-methoxy-1,5-naphthyridin-4-yl)oxy]phenyl]-5-(4-fluoro-2-methylphenyl)-4-hydroxy-2-(methoxymethyl)-6-methylpyridine-3-carboxamide], the IC50 was less than 100 nM in test [1], less than 100 nM in test [2] and greater than 300 nM in test [3].
On to `COc1cc2nccc(Oc3ccc(NC(=O)c4cn(C)c(C)c(-c5ccc(F)cc5C)c4=O)cc3)c2nc1OC` [Compound 196, N-[4-[(6,7-Dimethoxy-1,5-naphthyridin-4-yl)oxy]phenyl]-5-(4-fluoro-2-methylphenyl)-1,6-dimethyl-4-oxopyridine-3-carboxamide], for which the IC50 in test [1] was less than 100 nM; in test [2], less than 100 nM; in test [3] it was 100 to 300 nM.
For the molecule `CCc1nc(C)c(-c2ccc(F)cc2)c(O)c1C(=O)Nc1ccc(Oc2ccnc3cc(OC)c(OC)nc23)cc1` [Compound 197, N-[4-[(6,7-Dimethoxy-1,5-naphthyridin-4-yl)oxy]phenyl]-2-ethyl-5-(4-fluorophenyl)-4-hydroxy-6-methylpyridine-3-carboxamide], the IC50 in test [1], in test [2] and in test [3] was less than 100 nM throughout.
As for `COCCOc1nc2c(Oc3ccc(NC(=O)c4cn(C)c(C)c(-c5ccc(F)cc5)c4=O)cc3F)ccnc2cc1OC` [Compound 198, N-[3-Fluoro-4-[[7-methoxy-6-(2-methoxyethoxy)-1,5-naphthyridin-4-yl]oxy]phenyl]-5-(4-fluorophenyl)-1,6-dimethyl-4-oxopyridine-3-carboxamide], the IC50 in test [1] is less than 100 nM; in test [2], less than 100 nM; in test [3], 100 to 300 nM.
For the molecule `COCCOc1nc2c(Oc3ccc(NC(=O)c4c(COC)nc(C)c(-c5ccc(F)cc5)c4O)cc3F)ccnc2cc1OC` [Compound 199, N-[3-Fluoro-4-[[7-methoxy-6-(2-methoxyethoxy)-1,5-naphthyridin-4-yl]oxy]phenyl]-5-(4-fluorophenyl)-4-hydroxy-2-(methoxymethyl)-6-methylpyridine-3-carboxamide], the concentration for half-maximal inhibition (IC50) in test [1], in test [2] and in test [3] was less than 100 nM throughout.
On to `COCCOc1nc2c(Oc3ccc(NC(=O)c4cn(C)c(C)c(-c5ccc(F)cc5C)c4=O)cc3F)ccnc2cc1OC` [Compound 200, N-[3-Fluoro-4-[[7-methoxy-6-(2-methoxyethoxy)-1,5-naphthyridin-4-yl]oxy]phenyl]-5-(4-fluoro-2-methylphenyl)-1,6-dimethyl-4-oxopyridine-3-carboxamide], for which the concentration for half-maximal inhibition (IC50) in test [1] is less than 100 nM; in test [2] it was less than 100 nM; in test [3], greater than 300 nM.
As to `COCCOc1nc2c(Oc3ccc(NC(=O)c4c(COC)nc(C)c(-c5ccc(F)cc5C)c4O)cc3F)ccnc2cc1OC` [Compound 201, N-[3-Fluoro-4-[[7-methoxy-6-(2-methoxyethoxy)-1,5-naphthyridin-4-yl]oxy]phenyl]-5-(4-fluoro-2-methylphenyl)-4-hydroxy-2-(methoxymethyl)-6-methylpyridine-3-carboxamide], the IC50 in test [1] was less than 100 nM; in test [2], less than 100 nM; in test [3], 100 to 300 nM.
With `CCc1nc(C)c(-c2ccc(F)cc2C)c(O)c1C(=O)Nc1ccc(Oc2ccnc3cc(OC)c(OC)nc23)c(F)c1` [Compound 202, N-[4-[(6,7-Dimethoxy-1,5-naphthyridin-4-yl)oxy]-3-fluorophenyl]-2-ethyl-5-(4-fluoro-2-methylphenyl)-4-hydroxy-6-methylpyridine-3-carboxamide], the results for the IC50 in test [1], in test [2] and in test [3] were less than 100 nM, less than 100 nM and 100 to 300 nM, respectively.
As for `CCc1nc(C)c(-c2ccc(F)cc2C)c(O)c1C(=O)Nc1ccc(Oc2ccnc3cc(OC)c(OC)nc23)cc1` [Compound 203, N-[4-[(6,7-Dimethoxy-1,5-naphthyridin-4-yl)oxy]phenyl]-2-ethyl-5-(4-fluoro-2-methylphenyl)-4-hydroxy-6-methylpyridine-3-carboxamide], the IC50 in test [1], in test [2] and in test [3] was less than 100 nM in each case.
As to `CCc1nc(C)c(-c2ccc(F)cc2C)c(O)c1C(=O)Nc1ccc(Oc2ccnc3cc(OC)cnc23)c(F)c1` [Compound 204, 2-Ethyl-N-[3-fluoro-4-[(7-methoxy-1,5-naphthyridin-4-yl)oxy]phenyl]-5-(4-fluoro-2-methylphenyl)-4-hydroxy-6-methylpyridine-3-carboxamide], the IC50 is less than 100 nM in test [1], less than 100 nM in test [2] and 100 to 300 nM in test [3].
As for `CCc1nc(C)c(-c2ccc(F)cc2C)c(O)c1C(=O)Nc1ccc(Oc2ccnc3cc(OC)cnc23)cc1` [Compound 205, 2-Ethyl-5-(4-fluoro-2-methylphenyl)-4-hydroxy-N-[4-[(7-methoxy-1,5-naphthyridin-4-yl)oxy]phenyl]-6-methylpyridine-3-carboxamide], the IC50 is less than 100 nM in test [1], less than 100 nM in test [2] and greater than 300 nM in test [3].
As to `CCc1nc(C)c(-c2ccc(F)cc2C)c(O)c1C(=O)Nc1ccc(Oc2ccnc3ccc(OC)nc23)c(F)c1` [Compound 206, 2-Ethyl-N-[3-fluoro-4-[(6-methoxy-1,5-naphthyridin-4-yl)oxy]phenyl]-5-(4-fluoro-2-methylphenyl)-4-hydroxy-6-methylpyridine-3-carboxamide], the IC50 in test [1] is less than 100 nM; in test [2], less than 100 nM; in test [3], greater than 300 nM.
For `COc1cnc2c(Oc3ccc(NC(=O)c4ccc(C)n(-c5ccc(F)cc5)c4=O)cc3)ccnc2c1` [Compound 216, 1-(4-Fluorophenyl)-N-[4-[(7-methoxy-1,5-naphthyridin-4-yl)oxy]phenyl]-6-methyl-2-oxopyridine-3-carboxamide], the IC50 in test [1], in test [2] and in test [3] was less than 100 nM throughout.
